# Patent US9017956B2, “Use of the genes in the Hog, Ras and cAMP pathway for treatment of fungal infection” (Nutrex Technology Co., Ltd., priority 2009, dated 2015)
# Entries after “also recorded” stand apart in the source; their conditions may differ.
# Columns and labels:
# [1] = tested on: C. neoformans serotype A H99 strain and its deletion mutants; experiment: Antifungal drug sensitivity test: serially diluted cells spotted on YPD agar containing the drug; type: cell-based, Cryptococcus neoformans; details: for drug sensitivity of hog1Δ mutant compared to WT / drug sensitivity of pbs2Δ mutant compared to WT / drug sensitivity of skn7Δ mutant compared to WT / drug sensitivity of ssk1Δ mutant compared to WT / drug sensitivity of ssk2Δ mutant compared to WT / drug sensitivity of tco2Δ mutant compared to WT: YPD agar, 30° C., 72 h
# Protocol: (§1) Each strain was incubated overnight at 30° C. in YPD medium, washed, serially diluted (1 to 10^4 dilutions) in dH2O, and spotted (3 μl) onto solid YPD medium containing indicated concentrations of stress-inducing agents or antifungal drugs as previously described in “Bahn Y S, Kojima K, Cox G M, Heitman J (2005) Mol Biol Cell 16: 2285-2300.” and “Bahn Y S, Kojima K, Cox G M, Heitman J (2006) Mol Biol Cell 17: 3122-3135”. To examine antifungal drug sensitivity, the cells were spotted on agar-solid YPD media containing amphotericin B (Sigma), fluconazole (Sigma), itraconazole (Sigma), ketoconazole (Sigma) and fludioxonil. Then spotted cells were incubated at 30° C. for 2-4 days and photographed.
# [2] = tested on: C. neoformans serotype D strains JEC21 and B3501 and their deletion mutants; experiment: as above; type: cell-based, Cryptococcus neoformans
# Protocol: as §1
smiles,measurement,setting,value
C[C@@H]1[C@H](O)[C@@H](C)/C=C/C=C/C=C/C=C/C=C/C=C/C=C/[C@H](O[C@@H]2O[C@H](C)[C@@H](O)[C@H](N)[C@@H]2O)C[C@@H]2O[C@](O)(C[C@@H](O)C[C@@H](O)[C@H](O)CC[C@@H](O)C[C@@H](O)CC(=O)O[C@H]1C)C[C@H](O)[C@H]2C(=O)O [amphotericin B],drug sensitivity of aca1Δ mutant compared to WT,"[1]; aca1Δ, H99 background",slightly higher AmpB susceptibility
same,drug sensitivity of cac1Δ mutant compared to WT,[1]; H99 background,hypersensitive
same,drug sensitivity of cac1Δ mutant compared to WT,"[1]; H99 background, listed as AmpB",much higher AmpB-sensitivity
same,drug sensitivity of ena1Δ mutant,[1]; ena1Δ,did not show high sensitivity
same,drug sensitivity of ena1Δ nha1Δ double mutant,[1]; ena1Δ nha1Δ,considerably increased sensitivity
same,drug sensitivity of gpa1Δ mutant compared to WT,[1]; H99 background,hypersensitive
same,drug sensitivity of gpa1Δ mutant compared to WT,"[1]; H99 background, listed as AmpB",much higher AmpB-sensitivity
same,drug sensitivity of hog1Δ cac1Δ double mutant,[1]; compared to single mutants,even more sensitive
same,drug sensitivity of hog1Δ pka1Δ double mutant,"[1]; hog1Δ pka1Δ, compared to single mutants",even more sensitive
same,drug sensitivity of hog1Δ mutant compared to WT,[1]; H99 background,dramatic hypersensitivity
same,drug sensitivity of hsp12Δ mutant compared to WT,"[1]; hsp12Δ, H99 background",slightly higher susceptibility
same,drug sensitivity of hsp122Δ mutant compared to WT,"[1]; hsp122Δ, H99 background",slightly higher susceptibility
same,drug sensitivity of nha1Δ mutant,[1]; nha1Δ,did not show high sensitivity
same,drug sensitivity of pbs2Δ mutant compared to WT,[1]; H99 background,dramatic hypersensitivity
same,drug sensitivity of pka1Δ mutant compared to WT,[1]; H99 background,hypersensitive
same,drug sensitivity of pka1Δ mutant compared to WT,"[1]; H99 background, listed as AmpB",increased susceptibility
same,drug sensitivity of ras1Δ aca1Δ double mutant,[1]; compared to each single mutant,hypersensitive
same,drug sensitivity of ras1Δ aca1Δ double mutant,"[1]; compared to each single mutant, listed as AmpB",higher AmpB-sensitivity than each single mutant
same,drug sensitivity of ras1Δ cac1Δ double mutant,"[1]; ras1Δ cac1Δ, compared to each single mutant",even higher AmpB susceptibility than each single mutant
same,drug sensitivity of ras1Δ mutant compared to WT,"[1]; ras1Δ, H99 background",higher susceptibility
same,drug sensitivity of ras2Δ mutant compared to WT,"[1]; ras2Δ, H99 background",slightly more sensitive
same,drug sensitivity of skn7Δ mutant compared to WT,[1]; H99 background,WT-levels of resistance
same,drug sensitivity of ssk1Δ mutant compared to WT,[1]; H99 background,dramatic hypersensitivity
same,drug sensitivity of ssk2Δ mutant compared to WT,[1]; H99 background,dramatic hypersensitivity
same,drug sensitivity of tco2Δ mutant compared to WT,[1]; H99 background,hypersensitivity
same,drug resistance of B3501 strain compared to JEC21,[2]; B3501 (Hog1 constitutively phosphorylated),higher resistance
same,drug sensitivity of JEC21 strain,"[2]; JEC21 (Hog1 not constitutively phosphorylated), compared with ssk2Δ mutant in H99 background",hypersensitivity
same,effect of HOG1 mutation on drug sensitivity in JEC21 background,[2]; hog1Δ in JEC21,did not affect sensitivity
same,effect of PBS2 mutation on drug sensitivity in JEC21 background,[2]; pbs2Δ in JEC21,did not affect sensitivity
same,effect of SSK2 mutation on drug sensitivity in B3501 background,[2]; ssk2Δ in B3501,increased the amphotericin B sensitivity
same,effect of SSK2 mutation on drug sensitivity in JEC21 background,[2]; ssk2Δ in JEC21,did not affect sensitivity
OC(Cn1cncn1)(Cn1cncn1)c1ccc(F)cc1F [fluconazole],drug sensitivity of cac1Δ mutant compared to WT,[1]; H99 background,nearly as resistant
same,drug sensitivity of gpa1Δ mutant compared to WT,[1]; H99 background,nearly as resistant
same,drug sensitivity of hog1Δ cac1Δ double mutant,[1]; compared to single mutants,hypersensitivity; also recorded: hypersensitive
same,drug sensitivity of hog1Δ mutant compared to WT,[1]; H99 background,hyper-resistance
same,drug sensitivity of pbs2Δ mutant compared to WT,[1]; H99 background,hyper-resistance
same,drug sensitivity of pka1Δ pka2Δ double mutant compared to WT,"[1]; pka1Δ pka2Δ, H99 background",nearly as resistant
same,drug sensitivity of pka1Δ mutant compared to WT,[1]; H99 background,nearly as resistant
same,drug sensitivity of pka2Δ mutant compared to WT,"[1]; pka2Δ, H99 background",nearly as resistant
same,drug sensitivity of skn7Δ mutant compared to WT,[1]; H99 background,higher resistance
same,drug sensitivity of ssk1Δ mutant compared to WT,[1]; H99 background,hyper-resistance
same,drug sensitivity of ssk2Δ mutant compared to WT,[1]; H99 background,hyper-resistance
same,drug sensitivity of tco2Δ mutant compared to WT,[1]; H99 background,higher resistance
CC(=O)N1CCN(c2ccc(OCC3COC(Cn4ccnc4)(c4ccc(Cl)cc4Cl)O3)cc2)CC1 (centres unmarked) [ketoconazole],drug sensitivity of hog1Δ cac1Δ double mutant,[1]; compared to single mutants,hypersensitivity; also recorded: hypersensitive
same,drug sensitivity of hog1Δ mutant compared to WT,[1]; H99 background,hyper-resistance
same,drug sensitivity of pbs2Δ mutant compared to WT,[1]; H99 background,hyper-resistance
same,drug sensitivity of skn7Δ mutant compared to WT,[1]; H99 background,higher resistance
same,drug sensitivity of ssk1Δ mutant compared to WT,[1]; H99 background,hyper-resistance
same,drug sensitivity of ssk2Δ mutant compared to WT,[1]; H99 background,hyper-resistance
same,drug sensitivity of tco2Δ mutant compared to WT,[1]; H99 background,higher resistance
